The record followed here is patent US9926330B2, “Inhibitors of IRAK4 activity” (MERCK SHARP & DOHME CORP., priority 2014, dated 2018).

The structures appear in SMILES notation.

The target of the assay is GST tagged IRAK4 (Homo sapiens (Human), UniProt Q9NWZ3). Briefly: IRAK4 Kinase Assay (IMAP fluorescence polarization). Format: biochemical. The settings on record: 0.5 nM GST tagged IRAK4, 100 nM fluorescent peptide substrate RP7030, 100 μM ATP, 30 minutes at 25° C., IMAP FP readout. How it is done:
The kinase activity of IRAK4 is determined by its ability to catalyze the phosphorylation of a fluorescent polypeptide substrate. The extent of phosphorylation is measured using the IMAP technology (Molecular Devices) where the phosphorylated fluorescent substrate binds to the large M(III)-based nanoparticles which reduces the rotational speed of the substrate and thus increases its fluorescent polarization (FP).
20 μL reaction mixture contains 10 mM TriHCl, pH 7.2, 0.5 nM GST tagged IRAK4 (SignalChem), 100 nM fluorescent peptide substrate (RP7030, Molecular Devices), 100 μM ATP, 1 mM DDT, 1 mM MgCl2, and 0.01% Tween 20. The reaction is initiated by the addition of ATP. After incubation for 30 minutes at 25° C., 60 μL of Progressive IMAP Reagent (Molecular Devices) is added to stop the reaction. Change in RP7030's FP is determined by a FP reader (Analyst HT, LJL BioSystems).

Sequence of GST tagged IRAK4 (Q9NWZ3 whole entry): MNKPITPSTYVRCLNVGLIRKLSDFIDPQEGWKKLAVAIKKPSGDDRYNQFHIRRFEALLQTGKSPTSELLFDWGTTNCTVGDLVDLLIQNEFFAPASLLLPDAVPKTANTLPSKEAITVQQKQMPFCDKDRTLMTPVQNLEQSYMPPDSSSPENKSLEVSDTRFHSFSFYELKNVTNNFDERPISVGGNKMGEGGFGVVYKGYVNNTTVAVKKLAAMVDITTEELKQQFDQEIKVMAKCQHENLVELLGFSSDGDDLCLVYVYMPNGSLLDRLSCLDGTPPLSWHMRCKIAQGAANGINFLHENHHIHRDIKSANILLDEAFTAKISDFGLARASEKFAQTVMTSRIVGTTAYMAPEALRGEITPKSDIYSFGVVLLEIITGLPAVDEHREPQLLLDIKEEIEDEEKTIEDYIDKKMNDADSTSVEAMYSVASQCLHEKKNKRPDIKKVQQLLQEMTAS

`Cc1ccc2ncnc(N[C@H]3CC[C@H](N4CCNC(=O)C4)CC3)c2c1` [Example 2-5, 4-{trans-4-[(6-methylquinazolin-4-yl)amino]cyclohexyl}piperazin-2-one] returned an IC50 of 113 nM.
The same measure for `CC(C)c1ccc2ncnc(NC3CCC(N(C)C)CC3)c2c1` (centres unmarked) [Example 4-2, N,N-dimethyl-N′-[6-(1-methylethyl)quinazolin-4-yl]cyclohexane-1,4-diamine]: 16 nM.

For orientation: IC50 means the point on the concentration scale where inhibition reaches its midpoint. Low values mean greater potency in that assay, high ones weaker potency in that assay.
